# According to ChEMBL document CHEMBL1201862, “PubChem BioAssay data set” (2004):
#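 How tested: cells in 96-well plates exposed to compound for 48 hours at five concentrations. Abbreviation: GI50, concentration required for 50% inhibition of growth.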 Active and inactive are the calls of the source. Cut-off read from the data, not from the text of the source: active = GI50 up to about 1.1 µM and inactive = higher.
# Experiments:
# Experiment in all cases: NCI-60 cell line screen, 48 h
# [1] = tested on: T47D
# [2] = tested on: RXF 393
# [3] = tested on: SK-OV-3
# [4] = tested on: CCRF-CEM
# [5] = tested on: A549
# [6] = tested on: U-251
# [7] = tested on: SK-MEL-5
# [8] = tested on: SF-268
# [9] = tested on: NCI-H23
# [10] = tested on: UACC-62
# [11] = tested on: OVCAR-4
# [12] = tested on: 786-0
# [13] = tested on: MDA-MB-231
# [14] = tested on: HCT-116
# [15] = tested on: CAKI-1
# [16] = tested on: KM12
# [17] = tested on: NCI-H522
# [18] = tested on: UACC-257
# [19] = tested on: HL-60
# [20] = tested on: HCC 2998
Structure (SMILES),GI50 [1],GI50 [2],GI50 [3],GI50 [4],GI50 [5],GI50 [6],GI50 [7],GI50 [8],GI50 [9],GI50 [10],GI50 [11],GI50 [12],GI50 [13],GI50 [14],GI50 [15],GI50 [16],GI50 [17],GI50 [18],GI50 [19],GI50 [20]
Oc1ccc(/N=C/c2ccc(/C=N/c3ccc(O)cc3)cc2)cc1,25.7 µM (inactive),17.1 µM (inactive),16.9 µM (inactive),6.41 µM (inactive),19.2 µM (inactive),14.5 µM (inactive),15 µM (inactive),15.5 µM (inactive),17.1 µM (inactive),12.6 µM (inactive),14.5 µM (inactive),15.3 µM (inactive),14.2 µM (inactive),14.8 µM (inactive),20 µM (inactive),15.3 µM (inactive),17.7 µM (inactive),16.8 µM (inactive),–,–
Cc1ccc(S(=O)(=O)NC(=O)NS(=O)(=O)O)cc1,> 100 µM (inactive),> 100 µM (inactive),> 100 µM (inactive),> 100 µM (inactive),> 100 µM (inactive),> 100 µM (inactive),> 100 µM (inactive),> 100 µM (inactive),> 100 µM (inactive),> 100 µM (inactive),> 100 µM (inactive),> 100 µM (inactive),> 100 µM (inactive),> 100 µM (inactive),–,> 100 µM (inactive),> 100 µM (inactive),> 100 µM (inactive),> 100 µM (inactive),–
COC1OC(CBr)C(OC(c2ccccc2)(c2ccccc2)c2ccccc2)C(OC(c2ccccc2)(c2ccccc2)c2ccccc2)C1OC(c1ccccc1)(c1ccccc1)c1ccccc1 (configuration not stated),22.6 µM (inactive),33.4 µM (inactive),23 µM (inactive),> 100 µM (inactive),38.9 µM (inactive),–,66.5 µM (inactive),63.5 µM (inactive),87.3 µM (inactive),> 100 µM (inactive),18.3 µM (inactive),19.4 µM (inactive),–,37.6 µM (inactive),> 100 µM (inactive),> 100 µM (inactive),16 µM (inactive),> 100 µM (inactive),> 100 µM (inactive),65.2 µM (inactive)
NC1OC(COC(=O)c2ccccc2)C(O)C(OC(=O)c2ccccc2)C1OC(=O)c1ccccc1 (configuration not stated),35.5 µM (inactive),16.3 µM (inactive),41.3 µM (inactive),–,19.1 µM (inactive),17.7 µM (inactive),14.4 µM (inactive),22.6 µM (inactive),25.4 µM (inactive),14.1 µM (inactive),35.5 µM (inactive),15.5 µM (inactive),18.7 µM (inactive),18.8 µM (inactive),–,–,23.9 µM (inactive),18.1 µM (inactive),–,–
Cc1nc(Nc2ccc(Cl)cc2)sc1C(=O)NNc1ccc([N+](=O)[O-])cc1[N+](=O)[O-],–,16.3 µM (inactive),29.2 µM (inactive),17.8 µM (inactive),16.6 µM (inactive),15.6 µM (inactive),15.6 µM (inactive),18.7 µM (inactive),17.3 µM (inactive),14.3 µM (inactive),18.4 µM (inactive),16.3 µM (inactive),–,13.8 µM (inactive),23.6 µM (inactive),15.8 µM (inactive),14 µM (inactive),16.4 µM (inactive),16 µM (inactive),16.3 µM (inactive)
CC(NC(=O)C(C)C(=O)NCc1ccc(C(F)(F)F)cc1)C(N)=O (configuration not stated),> 100 µM (inactive),> 100 µM (inactive),> 100 µM (inactive),> 100 µM (inactive),> 100 µM (inactive),> 100 µM (inactive),> 100 µM (inactive),> 100 µM (inactive),> 100 µM (inactive),> 100 µM (inactive),–,> 100 µM (inactive),> 100 µM (inactive),> 100 µM (inactive),> 100 µM (inactive),> 100 µM (inactive),34.9 µM (inactive),> 100 µM (inactive),> 100 µM (inactive),–
COC(=O)c1c(-c2ccc(Cl)cc2)cc2c3ccccc3n(C)c2c1C(=O)OC,–,–,> 100 µM (inactive),7.85 µM (inactive),> 100 µM (inactive),> 100 µM (inactive),> 100 µM (inactive),> 100 µM (inactive),> 100 µM (inactive),> 100 µM (inactive),> 100 µM (inactive),> 100 µM (inactive),> 100 µM (inactive),> 100 µM (inactive),> 100 µM (inactive),> 100 µM (inactive),67.5 µM (inactive),64.7 µM (inactive),26.8 µM (inactive),–
CCCCCCCC(=O)OCC1OC(n2cc(F)c(=O)[nH]c2=O)C(N)C(OC(=O)CCCCCCC)C1O (configuration not stated),–,18 µM (inactive),28.8 µM (inactive),17.6 µM (inactive),18.3 µM (inactive),19.5 µM (inactive),10.5 µM (inactive),18.5 µM (inactive),20.1 µM (inactive),17.8 µM (inactive),15.2 µM (inactive),19.4 µM (inactive),–,19.5 µM (inactive),16.8 µM (inactive),21.2 µM (inactive),14.5 µM (inactive),17.8 µM (inactive),20.2 µM (inactive),16.5 µM (inactive)
CCN(CC)C1CC(O[C@H]2C[C@](O)(C(=O)CO)Cc3c(O)c4c(c(O)c32)C(=O)c2c(OC)cccc2C4=O)OC(C)C1O (some centres not stated),–,0.0446 µM (active),0.299 µM (active),0.122 µM (active),0.0395 µM (active),0.0509 µM (active),0.0508 µM (active),0.047 µM (active),0.0491 µM (active),0.0431 µM (active),0.0546 µM (active),0.0588 µM (active),–,0.0214 µM (active),0.232 µM (active),0.0577 µM (active),< 0.0256 µM (active),0.0951 µM (active),0.106 µM (active),0.0948 µM (active)
CN(C)CCN1CCc2c([nH]c3ccccc23)C1c1cccnc1 (configuration not stated),–,20.2 µM (inactive),> 100 µM (inactive),> 100 µM (inactive),> 100 µM (inactive),> 100 µM (inactive),> 100 µM (inactive),> 100 µM (inactive),> 100 µM (inactive),> 100 µM (inactive),> 100 µM (inactive),> 100 µM (inactive),–,> 100 µM (inactive),> 100 µM (inactive),> 100 µM (inactive),> 100 µM (inactive),> 100 µM (inactive),> 100 µM (inactive),> 100 µM (inactive)
COC(=O)C1=C(C)N(NC(=O)OC(C)(C)C)C(=O)C1=P(c1ccccc1)(c1ccccc1)c1ccccc1,–,> 100 µM (inactive),> 100 µM (inactive),> 100 µM (inactive),> 100 µM (inactive),> 100 µM (inactive),> 100 µM (inactive),> 100 µM (inactive),> 100 µM (inactive),> 100 µM (inactive),> 100 µM (inactive),> 100 µM (inactive),–,> 100 µM (inactive),> 100 µM (inactive),64 µM (inactive),75.5 µM (inactive),> 100 µM (inactive),42.4 µM (inactive),> 100 µM (inactive)
CCN(CC)CCOC(c1ccccc1)c1ccccc1.CCOC(=O)Nc1ccc(S(=O)(=O)OC)cc1.CCOC(=O)Nc1ccc(S(=O)(=O)OC)cc1.Nc1ccc(C(=O)O)c(O)c1,–,> 100 µM (inactive),> 100 µM (inactive),> 100 µM (inactive),> 100 µM (inactive),> 100 µM (inactive),> 100 µM (inactive),> 100 µM (inactive),> 100 µM (inactive),> 100 µM (inactive),> 100 µM (inactive),> 100 µM (inactive),–,> 100 µM (inactive),> 100 µM (inactive),> 100 µM (inactive),> 100 µM (inactive),> 100 µM (inactive),> 100 µM (inactive),> 100 µM (inactive)
O=C(O)c1ccccc1C(=O)Nn1cnnc1,–,> 100 µM (inactive),> 100 µM (inactive),> 100 µM (inactive),> 100 µM (inactive),> 100 µM (inactive),> 100 µM (inactive),> 100 µM (inactive),> 100 µM (inactive),> 100 µM (inactive),> 100 µM (inactive),> 100 µM (inactive),> 100 µM (inactive),> 100 µM (inactive),–,> 100 µM (inactive),> 100 µM (inactive),> 100 µM (inactive),–,> 100 µM (inactive)
Cc1cc(S(=O)(=O)Nc2nc3ccsc3c(=O)n2N)c(S)cc1Cl,–,–,> 100 µM (inactive),71.9 µM (inactive),> 100 µM (inactive),57.1 µM (inactive),56.9 µM (inactive),42.2 µM (inactive),> 100 µM (inactive),38.7 µM (inactive),68.1 µM (inactive),> 100 µM (inactive),70.1 µM (inactive),94.8 µM (inactive),> 100 µM (inactive),80.7 µM (inactive),44 µM (inactive),> 100 µM (inactive),> 100 µM (inactive),> 100 µM (inactive)
CC(C)[C@]12O[C@H]1[C@@H]1O[C@]13[C@]1(O[C@H]1C[C@H]1C4=C(CC[C@@]13C)C(=O)OC4)[C@@H]2O [TRIPTOLIDE],–,–,0.0474 µM (active),0.011 µM (active),–,0.061 µM (active),0.00697 µM (active),0.0249 µM (active),0.00322 µM (active),0.00421 µM (active),0.00792 µM (active),0.0169 µM (active),0.0145 µM (active),0.00258 µM (active),–,0.0274 µM (active),0.00881 µM (active),–,0.00667 µM (active),0.0183 µM (active)
